Structures are written as SMILES.

The source of these data is ChEMBL document CHEMBL1152287, “Structure-activity relationships of acetylcholinesterase noncovalent inhibitors based on a polyamine backbone. 4. Further investigation on the inner spacer” (J Med Chem, 2008).

For one assay, the target named is Acetylcholinesterase (Homo sapiens, UniProt P22303). Nature of the assay: Inhibition of human recombinant AChE by Ellman's assay. Background: DTNB colorimetry detects thiols as they appear.
A further assay concerns the target Cholinesterase (Homo sapiens, UniProt P06276). The assay is described as follows: Inhibition of human serum BChE by Ellman's assay.
The target in assay [1] is T1, Amyloid-beta precursor protein (Homo sapiens, UniProt P05067). Nature of the assay: Inhibition of self-induced amyloid beta (1-40) aggregation at 10 uM by thioflavin T formation assay.
T1 sequence (P05067 whole entry): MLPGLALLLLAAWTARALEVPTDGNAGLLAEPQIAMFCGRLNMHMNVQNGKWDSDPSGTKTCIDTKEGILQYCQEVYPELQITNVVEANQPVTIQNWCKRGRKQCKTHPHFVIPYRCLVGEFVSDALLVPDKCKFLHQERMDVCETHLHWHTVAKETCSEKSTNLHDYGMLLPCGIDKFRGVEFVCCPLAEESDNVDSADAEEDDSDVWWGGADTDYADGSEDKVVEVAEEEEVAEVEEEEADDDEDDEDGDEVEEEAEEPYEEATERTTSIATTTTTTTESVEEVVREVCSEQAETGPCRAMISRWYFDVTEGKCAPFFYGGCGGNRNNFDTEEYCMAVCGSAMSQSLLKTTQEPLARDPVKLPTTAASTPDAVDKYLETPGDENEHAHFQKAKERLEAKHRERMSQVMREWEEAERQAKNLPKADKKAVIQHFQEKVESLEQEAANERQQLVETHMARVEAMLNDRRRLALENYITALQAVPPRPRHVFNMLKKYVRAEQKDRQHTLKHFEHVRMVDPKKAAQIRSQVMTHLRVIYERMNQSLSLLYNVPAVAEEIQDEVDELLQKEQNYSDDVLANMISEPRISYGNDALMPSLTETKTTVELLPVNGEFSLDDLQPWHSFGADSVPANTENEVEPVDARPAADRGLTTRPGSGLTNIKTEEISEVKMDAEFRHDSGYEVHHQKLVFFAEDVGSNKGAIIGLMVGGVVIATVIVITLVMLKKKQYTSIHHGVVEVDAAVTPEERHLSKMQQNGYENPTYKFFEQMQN
Assay [2] concerns the target T1, Amyloid-beta precursor protein. The assay is described as follows: Inhibition of self-induced amyloid beta (1-40) aggregation by thioflavin T formation assay.

Sequence of Cholinesterase (P06276 whole entry): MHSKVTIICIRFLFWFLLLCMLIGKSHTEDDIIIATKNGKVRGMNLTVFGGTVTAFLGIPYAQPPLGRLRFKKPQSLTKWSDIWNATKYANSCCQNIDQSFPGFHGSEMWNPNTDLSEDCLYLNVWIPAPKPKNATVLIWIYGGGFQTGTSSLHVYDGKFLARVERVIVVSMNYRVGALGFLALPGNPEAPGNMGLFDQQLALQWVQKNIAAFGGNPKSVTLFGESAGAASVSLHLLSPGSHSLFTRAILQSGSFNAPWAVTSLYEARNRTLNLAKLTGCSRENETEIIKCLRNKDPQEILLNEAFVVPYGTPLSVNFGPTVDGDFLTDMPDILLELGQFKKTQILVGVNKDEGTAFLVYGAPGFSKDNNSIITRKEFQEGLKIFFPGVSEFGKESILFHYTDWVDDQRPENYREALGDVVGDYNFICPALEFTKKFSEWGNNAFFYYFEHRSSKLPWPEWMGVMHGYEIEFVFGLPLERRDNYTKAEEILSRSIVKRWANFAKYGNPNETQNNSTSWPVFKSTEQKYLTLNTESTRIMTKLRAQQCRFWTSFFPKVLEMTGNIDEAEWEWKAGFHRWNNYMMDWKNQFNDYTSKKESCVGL
Sequence of Acetylcholinesterase (P22303 whole entry): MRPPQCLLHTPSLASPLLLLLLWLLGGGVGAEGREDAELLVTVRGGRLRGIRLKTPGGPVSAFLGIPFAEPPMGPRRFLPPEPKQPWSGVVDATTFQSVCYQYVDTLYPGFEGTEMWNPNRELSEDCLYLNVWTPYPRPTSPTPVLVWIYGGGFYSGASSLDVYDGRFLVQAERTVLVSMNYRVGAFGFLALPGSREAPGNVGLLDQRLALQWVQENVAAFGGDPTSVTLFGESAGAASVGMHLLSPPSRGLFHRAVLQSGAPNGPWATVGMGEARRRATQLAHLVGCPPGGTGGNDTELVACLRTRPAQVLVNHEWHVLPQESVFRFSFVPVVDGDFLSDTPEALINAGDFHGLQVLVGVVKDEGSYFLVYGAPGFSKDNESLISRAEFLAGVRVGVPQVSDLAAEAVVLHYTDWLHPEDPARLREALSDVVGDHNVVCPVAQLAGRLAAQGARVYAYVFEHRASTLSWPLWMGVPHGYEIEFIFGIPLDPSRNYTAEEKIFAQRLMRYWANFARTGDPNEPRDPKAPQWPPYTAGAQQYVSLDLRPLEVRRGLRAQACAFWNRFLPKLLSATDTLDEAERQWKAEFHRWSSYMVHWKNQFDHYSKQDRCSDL

The term IC50 denotes the concentration needed to halve the response being measured. For orientation: inhibition means the share of the control response that was lost under treatment. A lower inhibition goes with a response near the control. For the compound `CCN(CCCCCCn1c(=O)c(=O)n(CCCCCCN(CC)Cc2ccccc2OC)c2ccccc21)Cc1ccccc1OC`, the IC50 came to 1.41 nM on Acetylcholinesterase and 95.8 nM against Cholinesterase. The compound further gave an inhibition in assay [1] of 8.8%.
For `CCN(CCCCCC(=O)N[C@H]1CCCC[C@H]1NC(=O)CCCCCN(CC)Cc1ccccc1OC)Cc1ccccc1OC`, the IC50 on Acetylcholinesterase worked out at 4160 nM; at Cholinesterase, 30800 nM.
On to `CCN(CCCCCCN1C(=O)c2cccc3cccc(c23)C1=O)Cc1ccccc1OC`, for which the results for the IC50 on Acetylcholinesterase and at Cholinesterase were 53.5 nM and 416 nM, respectively. This compound gave an inhibition in assay [1] of less than 5%.
Consider `CCN(CCCCCC(=O)N[C@H]1CCCC[C@@H]1NC(=O)CCCCCN(CC)Cc1ccccc1OC)Cc1ccccc1OC` (racemic), for which the IC50 at Acetylcholinesterase was 5470 nM; at Cholinesterase, 36800 nM.
In the case of `CCN(CCCCCCN1CCN(CCCCCCN(CC)Cc2ccccc2OC)C(=O)C1=O)Cc1ccccc1OC`, the values for the IC50 at Acetylcholinesterase and at Cholinesterase were 68.9 nM and 10300 nM, respectively.
Take `CCN(CCCCCC(=O)N1Cc2ccc3c4c(ccc(c24)C1)CN(C(=O)CCCCCN(CC)Cc1ccccc1OC)C3)Cc1ccccc1OC`: the results for the IC50 on Acetylcholinesterase and against Cholinesterase were 4.83 nM and 1040 nM, respectively. In addition, in assay [1], the inhibition came to 12.7%.
`CCN(CCCCCC(=O)N[C@H]1CC[C@H](NC(=O)CCCCCN(CC)Cc2ccccc2OC)CC1)Cc1ccccc1OC`: the IC50 at Acetylcholinesterase is 8550 nM; against Cholinesterase it was 25300 nM.
In the case of `CCN(CCCCCCN1CCN(CCCCCCN(CC)Cc2ccccc2OC)C1=O)Cc1ccccc1OC`, the IC50 on Acetylcholinesterase is 72.4 nM; against Cholinesterase, 876 nM. The compound also had an inhibition in assay [1] of less than 5%.
For `CCN(CCCCCCn1c(=O)c2cc3c(=O)n(CCCCCCN(CC)Cc4ccccc4OC)c(=O)c3cc2c1=O)Cc1ccccc1OC`, the half-inhibitory concentration (IC50) at Acetylcholinesterase turned out to be 7.7 nM; on Cholinesterase it was 3000 nM. Moreover, the inhibition in assay [1] is less than 5%.
For the compound `CCN(CCCCCCN1C(=O)c2ccc3c4c(ccc(c24)C1=O)C(=O)N(CCCCCCN(CC)Cc1ccccc1OC)C3=O)Cc1ccccc1OC`, the values for the IC50 (on Acetylcholinesterase; against Cholinesterase; in assay [2]) were 0.37 nM, 1910 nM and 9690 nM, respectively. In assay [1], this compound displayed an inhibition of 54.5%.
`CCN(CCCCCC(=O)N1CCC(C2CCN(C(=O)CCCCCN(CC)Cc3ccccc3OC)CC2)CC1)Cc1ccccc1OC` had an inhibition in assay [1] of 13.7%.
The same measure, in the same setting: the value for `COc1ccccc1CN(C)CCCCCC(=O)N(C)CCCCCCCCN(C)C(=O)CCCCCN(C)Cc1ccccc1OC` was 20.3%.
Regarding `CCN(CCCCCC(=O)N1CCN(C(=O)CCCCCN(CC)Cc2ccccc2OC)CC1)Cc1ccccc1OC`, the half-maximal inhibitory concentration (IC50) on Acetylcholinesterase is 25.7 nM; at Cholinesterase, 10700 nM. For the same compound, the inhibition in assay [1] is less than 5%.
As to `CCN(CCCCCCN1CC(=O)N(CCCCCCN(CC)Cc2ccccc2OC)CC1=O)Cc1ccccc1OC`, the 50% inhibitory concentration (IC50) at Acetylcholinesterase is 15.9 nM; against Cholinesterase it was 2090 nM. In addition, in assay [1], the inhibition is 4.8%.
The corresponding values for `CCN(CCCCCCN1C(=O)c2ccc(-c3ccc4c(c3)C(=O)N(CCCCCCN(CC)Cc3ccccc3OC)C4=O)cc2C1=O)Cc1ccccc1OC` are 14 nM, 293 nM and 16.5%.
